{
  "source": "patent US10537552B2",
  "about": "“Substituted 5-hydroxyoxindoles and their use as analgesics and fever reducers” (CARAFE DRUG INNOVATION, LLC, priority 2015, dated 2020)",
  "key": {"[1]": {"assay": "solubility observed when preparing dosing vehicle", "assay_type": "physicochemical", "method": "Acetaminophen was acquired from Sigma-Aldrich Corp. (St. Louis, Mo., USA); 5-hydroxy-7-methyloxindole was provided by CaRafe Drug Innovation, LLC (Norristown, Pa., USA) in the form of a powder. […] […] This procedure provided a crude suspension, but it precipitated after some time, therefore vortexing was repeated prior to each injection. Acetaminophen was prepared in the same vehicle (6% Tween® 20 reagent) using light magnetic stirring."}, "[2]": {"tested_on": "liver (acute liver toxicity)", "assay": "liver histology (pathohistological examination)", "assay_type": "in vivo, C57BL/6 mice", "method": "In all experiments, mice were fasted overnight and then allocated randomly to receive either acetaminophen or equimolar dose of 5-hydroxy-7-methyloxindole by the intragastric route. Food was returned 4 h after the treatment. The two experimental groups were:\n(a) Lower-dose group: Mice were administered acetaminophen (300 mg/kg) or 5-hydroxy-7-methyloxindole (324 mg/kg). After 7 h, the mice were sacrificed and liver and blood samples were taken for the analysis.\nSeven hours after receiving the second injection, mice were sacrificed and liver and blood samples were taken for analysis.\nA portion of the liver lobes of each mouse was fixed in 4% buffered paraformaldehyde, dehydrated in increasing concentrations of ethanol, and embedded in paraffin. Then, sections of tissue were cut to […] thickness using a rotary microtome, stained with hematoxylin and eosin, and then analyzed under a microscope."}, "COX2 (h)": {"target": "T1, COX2 (h) (Homo sapiens, UniProt P35354)", "T1 construct": "host or cells: Sf9 cells", "T1 sequence (P35354 18-604)": "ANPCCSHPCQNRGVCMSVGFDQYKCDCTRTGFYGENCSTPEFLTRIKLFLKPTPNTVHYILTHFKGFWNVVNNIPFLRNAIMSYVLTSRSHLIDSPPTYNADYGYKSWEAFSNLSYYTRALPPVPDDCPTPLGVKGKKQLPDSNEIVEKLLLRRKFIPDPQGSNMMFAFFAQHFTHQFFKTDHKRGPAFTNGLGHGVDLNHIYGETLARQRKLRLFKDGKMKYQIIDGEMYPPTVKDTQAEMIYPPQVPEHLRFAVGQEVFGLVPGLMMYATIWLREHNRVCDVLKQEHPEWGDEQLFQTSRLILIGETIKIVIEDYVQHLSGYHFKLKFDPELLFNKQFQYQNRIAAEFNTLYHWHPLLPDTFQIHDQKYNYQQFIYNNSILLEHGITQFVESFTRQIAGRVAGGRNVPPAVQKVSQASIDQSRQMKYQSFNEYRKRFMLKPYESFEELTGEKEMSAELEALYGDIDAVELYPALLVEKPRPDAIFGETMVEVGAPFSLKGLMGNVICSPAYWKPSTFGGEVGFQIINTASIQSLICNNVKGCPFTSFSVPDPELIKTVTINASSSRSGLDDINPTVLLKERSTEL", "assay": "COX2 enzyme assay", "assay_type": "biochemical", "method": "(§1) The assay was performed according to the procedure described in Glaser, European Journal of Pharmacology, 281:107-111, 1995, which is incorporated by reference. Recombinant enzymes were reconstituted in buffer. The enzyme preparations were preincubated with DMSO vehicle or compounds in DMSO for 5 min at 37° C. and the human recombinant enzyme expressed in Sf9 cells.\n(§2) An inhibition greater than about 50% represented significant effects of the test compound. An inhibition of about 25% to about 50% was indicative of weak to moderate effects. An inhibition less than about 25% are not considered significant and may be primarily attributable to variability of the signal around the control level."}, "COX1 (h)": {"target": "T2, COX1 (h) (Homo sapiens, UniProt P23219)", "T2 construct": "host or cells: Sf9 cells", "T2 sequence (P23219 24-599)": "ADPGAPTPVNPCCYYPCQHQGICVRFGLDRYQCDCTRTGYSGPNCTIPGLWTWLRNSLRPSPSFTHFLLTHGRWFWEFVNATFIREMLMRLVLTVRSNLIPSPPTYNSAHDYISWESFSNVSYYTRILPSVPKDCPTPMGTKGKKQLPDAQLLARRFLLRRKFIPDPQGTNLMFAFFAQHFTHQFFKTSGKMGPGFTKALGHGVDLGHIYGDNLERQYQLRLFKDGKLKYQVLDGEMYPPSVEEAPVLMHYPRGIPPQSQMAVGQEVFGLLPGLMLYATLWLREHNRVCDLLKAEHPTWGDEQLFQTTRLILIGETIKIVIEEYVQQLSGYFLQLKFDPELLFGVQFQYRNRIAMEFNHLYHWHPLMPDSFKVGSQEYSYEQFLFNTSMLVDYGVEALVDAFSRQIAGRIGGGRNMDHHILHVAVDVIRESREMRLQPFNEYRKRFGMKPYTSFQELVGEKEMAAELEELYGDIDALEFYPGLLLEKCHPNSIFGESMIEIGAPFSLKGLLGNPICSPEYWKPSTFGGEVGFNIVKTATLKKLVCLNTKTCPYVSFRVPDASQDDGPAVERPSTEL", "assay": "COX1 enzyme assay", "assay_type": "biochemical", "method": "as §1, §2"}, "opioid receptor": {"tested_on": "opioid receptor", "assay": "opioid receptor binding assay, non-selective, [3H]-naloxone", "design": "species or system rat", "method": "The non-selective assay was performed according to the procedure described in Childers, European Journal of Pharmacology, 55:11-18, 1979, which is incorporated by reference. In summary, adult Male Sprague-Dawley rats were killed by decapitation and the brains rapidly removed and placed in ice-cold buffer. The cerebral cortex was dissected and homogenized in buffer and the homogenates were further centrifuged. The binding experiments were performed at 25° C. for 40 min. Reaction mixtures contained tissue suspension, unlabeled drug and [^3H]-naloxone (1 nM) radioligand.\nas §2"}, "[3]": {"settings": "test concentration 1 × 10^−5 M, human recombinant enzyme expressed in Sf9 cells"}},
  "data": [
    {"molecule": "Cc1cc(O)cc2c1NC(=O)C2", "note": "[5-hydroxy-7-methyloxindole, 5-Hydroxy-7-methyloxindole]", "values": [
      {"measurement": "solubility", "setting": "[1]; general statement", "value": "low solubility"},
      {"measurement": "solubility in saline", "setting": "[1]; saline, for dosing", "value": "not sufficiently soluble"},
      {"measurement": "liver injury on pathohistological examination", "setting": "[2]; higher-dose protocol: two cumulative injections 2.5 h apart, 7 h after second injection", "value": "without visible liver injury"},
      {"measurement": "liver injury on pathohistological examination", "setting": "[2]; lower-dose protocol: acetaminophen 300 mg/kg or 5-hydroxy-7-methyloxindole 324 mg/kg, 7 h", "value": "no visible sign of liver injury"},
      {"measurement": "binding to COX2 receptor, in words", "setting": "COX2 (h)", "value": "binds minimally, if at all"},
      {"measurement": "inhibition at 10 µM", "setting": "COX2 (h); [3]", "value": -6.8, "unit": "%"},
      {"measurement": "binding to COX1 receptor, in words", "setting": "COX1 (h)", "value": "binds minimally, if at all"},
      {"measurement": "inhibition at 10 µM", "setting": "COX1 (h); [3]", "value": -29, "unit": "%"},
      {"measurement": "binding to opioid receptor, in words", "setting": "opioid receptor", "value": "binds minimally, if at all"},
      {"measurement": "Mean Inhibition (%)", "setting": "opioid receptor; test concentration 1 × 10^−5 M, rat cerebral cortex, [3H]-naloxone 1 nM", "value": "−9.7", "unit": "%"}
    ]}
  ]
}
